Experimental findings from patent US12448372B2, “Class of triaromatic compounds targeting bifunctional phosphorylation site of STAT3 and applications thereof” (SHANGHAI YUYAO BIOTECH LTD., priority 2019, dated 2025) are described below.

The test system of test [1] is HCC827. Put plainly: Cell proliferation by MTS method, HCC827. The format is cell-based. The note with it: Table 1, HCC827, read-out: Tumour cell proliferative activity/IC50(nM) Lung Cancer HCC827. The source says: (§1) (2) Detection of Cell Proliferation by MTS Method
(§2) The MTS assay is a method for indirectly determining the number of living cells via colourimetric method. MTS is a newly synthesised tetrazole compound that reflects cell viability, which can be reduced by succinate dehydrogenase in the mitochondria of living cells to an orange-coloured formazan with an absorbance of the reduced product measured at 490 nm being in proportion to the number of living cells, thus reflecting the cell viability. This assay can be used to evaluate the effect of the compound on the proliferation of pancreatic cancer cells, thereby determining the inhibitory effect of the compound on the proliferation of pancreatic cancer cells and to calculate the IC^50. Each cells were inoculated uniformly into a 96-well plate at a density of 1-20×10^3 cells/well, 100 μL per well, and placed in a constant temperature incubator until the cells adhered to the wall. The control group was added with the corresponding medium and the experimental groups were given different concentrations of the compound prepared by the examples of the present invention, and the cells were taken out 24-96 h after administration for observing the cell state under a microscope. Under light-proof conditions, MTS was added and well mixed, the mixture was placed in a constant temperature incubator at 37° C., and the light absorption value were measured using an enzyme marker at 490 nm and the experiment was repeated for three times, IC50 was calculated with GraphPad5 Prism software.

Test [2] relates to Capan-2. Put plainly: Cell proliferation by MTS method, Capan-2. Conditions: for improvement of anti-tumor proliferative activity over OPB51602 and IACS-010759: pancreatic cancer cells, FIG. 5B. The format is cell-based.
Text: as §1, §2

The target of test [3] is STAT3 protein (Homo sapiens, UniProt P40763). Briefly: Binding activity to STAT3 protein by microscale thermophoresis (MST). The note with it: purified STAT3 recombinant protein. The source says:
(1) Determination of Binding Activities of Compounds to STAT3 Protein by Microscale Thermophoresis (MST) Method
The microscale thermophoresis (MST) technique is a simple, rapid, and accurate method for quantifying biomolecular interactions. It can measure the movement of molecules in a microscopic temperature gradient field, as well as detect changes of molecular hydration shell, charge and size. When the Nanotemper microscale thermophoresis instrument locally heated by a infrared laser, molecules will move in a directional manner, then the molecular distribution ratio in the temperature gradient field are analyzed by a fluorescence to detect whether a small molecule compound binds to a target protein. The experimental operation is as follows: firstly, compounds to be tested are diluted in a gradient using MST test buffer, total 16 concentrations being configured; subsequently, the purified STAT3 recombinant protein is labeled using the HIS tag labeling kit, and the final concentration of the labeled protein is 100-200 nM; the labeled STAT3 proteins are well mixed with the diluted compounds and incubated and protected from light for 30 minutes; finally the samples were loaded by capillary tube and detected on the instrument. The binding constants (K^D) of small molecules to STAT3 protein were analyzed by Mo. analysis software.

The test system of test [4] is Huh7. Briefly: Cell proliferation by MTS method, Huh7. The format is cell-based. Conditions: Table 1, Huh7, read-out: Tumour cell proliferative activity/IC50(nM) Liver Cancer Huh7.
Text: as §1, §2

Test [5] deals with MKN45. Put plainly: Cell proliferation by MTS method, MKN45. Conditions: Table 1, MKN45, read-out: Tumour cell proliferative activity/IC50(nM) gastric Cancer MKN45. The format is cell-based.
Text: as §1, §2

[6] abbreviates: Homo sapiens, Table 1, Capan-2, read-out: Tumour cell proliferative activity/IC50(nM) Pancreatic Cancer Capan-2.
The mark [7] stands for this setting: Homo sapiens, Capan-2, FIG. 5B, read-out: IC50, inhibition of proliferation of pancreatic cancer cells.

Like-named read-outs stand apart in the source and are kept apart here. A value given as a limit tells only on which side of the number the result lay.

Sequence of STAT3 protein (P40763 whole entry): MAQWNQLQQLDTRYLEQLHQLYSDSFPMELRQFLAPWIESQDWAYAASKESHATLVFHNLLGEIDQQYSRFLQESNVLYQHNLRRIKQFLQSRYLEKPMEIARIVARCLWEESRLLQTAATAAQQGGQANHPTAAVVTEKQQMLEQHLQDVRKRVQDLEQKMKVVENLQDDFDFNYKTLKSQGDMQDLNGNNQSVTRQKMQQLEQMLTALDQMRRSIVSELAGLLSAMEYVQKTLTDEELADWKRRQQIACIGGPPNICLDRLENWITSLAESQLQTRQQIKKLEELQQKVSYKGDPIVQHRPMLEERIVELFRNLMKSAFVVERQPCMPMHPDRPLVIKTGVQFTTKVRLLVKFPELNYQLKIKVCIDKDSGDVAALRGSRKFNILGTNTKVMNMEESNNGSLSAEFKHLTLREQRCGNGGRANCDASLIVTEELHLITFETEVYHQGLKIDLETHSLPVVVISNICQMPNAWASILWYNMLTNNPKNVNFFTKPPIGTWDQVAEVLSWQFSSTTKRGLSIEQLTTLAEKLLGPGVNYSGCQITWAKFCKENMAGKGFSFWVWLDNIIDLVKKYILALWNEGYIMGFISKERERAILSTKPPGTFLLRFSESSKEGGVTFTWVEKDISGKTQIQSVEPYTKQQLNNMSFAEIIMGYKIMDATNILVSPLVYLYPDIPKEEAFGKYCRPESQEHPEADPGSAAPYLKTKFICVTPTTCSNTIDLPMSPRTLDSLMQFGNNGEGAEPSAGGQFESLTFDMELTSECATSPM

Take `Cn1c(C(=O)N2CCN(Cc3ccc(OCC(F)(F)F)cc3)CC2)cc2ccc(Oc3cnc(-c4nc(-c5ccccc5)no4)cn3)cc21` [Example 1, 1-methyl-(6-((5-(3-phenyl-1,2,4-oxadiazol-5-yl)pyrazin-2-yl)oxy)-1H-indol-2-yl)(4-(4-(2,2,2-trifluoroethoxy)benzyl)piperazin-1-yl)methanone]: the IC50 in test [1] is below 10 nM; in test [2] (Table 1, Capan-2, read-out: Tumour cell proliferative activity/IC50(nM) Pancreatic Cancer Capan-2), below 10 nM; in test [4] it was below 10 nM; in test [5], below 10 nM. Also, the Kd in test [3] was below 10 nM.

Consider `Cn1c(C(=O)N2CCN(Cc3ccc(OCC(F)(F)F)cc3)CC2)cc2ccc(Oc3cnc(-c4nc(-c5ccc(F)cc5)no4)cn3)cc21` [Example 2, (6-((5-(3-(4-fluorophenyl)-1,2,4-oxadiazol-5-yl)pyrazin-2-yl)oxy)-1-methyl-1H-indol-2-yl)(4-(4-(2,2,2-trifluoroethoxy)benzyl)piperazin-1-yl)methanone], for which the IC50 in test [1] (Homo sapiens) is below 10 nM; in test [2] (setting [6]) it was below 10 nM; in test [4] (Homo sapiens, Huh-7) it was below 10 nM; in test [5] (Homo sapiens, MKN-45) it was below 10 nM. Besides, the equilibrium dissociation constant (Kd) in test [3] was below 10 nM.

Turning to `Cn1c(C(=O)N2CCN(Cc3ccc(OCC(F)(F)F)cc3)CC2)cc2ccc(Oc3cnc(-c4nc(-c5ccccc5F)no4)cn3)cc21` [Example 3, (6-((5-(3-(2-fluorophenyl)-1,2,4-oxadiazol-5-yl)pyrazin-2-yl)oxy)1-methyl-1H-indol-2-yl)(4-(4-(2,2,2-trifluoroethoxy)benzyl)piperazin-1-yl)methanone], the IC50 in test [1] (Homo sapiens) was below 10 nM; in test [2] (setting [6]), below 10 nM; in test [4] (Homo sapiens, Huh-7) it was below 10 nM; in test [5] (Homo sapiens, MKN-45), below 10 nM. Further, the Kd in test [3] was below 10 nM.

Turning to `Cn1c(C(=O)N2CCN(Cc3ccc(OCC(F)(F)F)cc3)CC2)cc2ccc(Oc3cnc(-c4nc(-c5cccc(F)c5)no4)cn3)cc21` [Example 4, (6-((5-(3-(3-fluorophenyl)-1,2,4-oxadiazol-5-yl)pyrazin-2-yl)oxy)1-methyl-1H-indol-2-yl)(4-(4-(2,2,2-trifluoroethoxy)benzyl)piperazin-1-yl)methanone], the IC50 is below 10 nM in test [1] (Homo sapiens); below 10 nM in test [2] (setting [6]); below 10 nM in test [4] (Homo sapiens, Huh-7); below 10 nM in test [5] (Homo sapiens, MKN-45). In addition, the Kd in test [3] is below 10 nM.

For `COc1ccc(-c2noc(-c3cnc(Oc4ccc5cc(C(=O)N6CCN(Cc7ccc(OCC(F)(F)F)cc7)CC6)n(C)c5c4)cn3)n2)cc1` [Example 5, (6-((5-(3-(4-methoxyphenyl)-1,2,4-oxadiazol-5-yl)pyrazin-2-yl)oxy)1-methyl-1H-indol-2-yl)(4-(4-(2,2,2-trifluoroethoxy)benzyl)piperazin-1-yl)methanone], the IC50 in test [1] (Homo sapiens) was below 10 nM; in test [2] (setting [6]) it was below 10 nM; in test [4] (Homo sapiens, Huh-7) it was below 10 nM; in test [5] (Homo sapiens, MKN-45), below 10 nM. Besides, in test [3], the Kd was below 10 nM.

For `Cn1c(C(=O)N2CCN(Cc3ccc(OCC(F)(F)F)cc3)CC2)cc2ccc(Oc3cnc(-c4nc(-c5ccccc5C(F)(F)F)no4)cn3)cc21` [Example 7, (6-((5-(3-(2-(trifluoromethyl)phenyl)-1,2,4-oxadiazol-5-yl)pyrazin-2-yl)oxy)-1-methyl-1H-indol-2-yl)(4-(4-(2,2,2-trifluoroethoxy)benzyl)piperazin-1-yl)methanone], the IC50 in test [1] (Homo sapiens) was below 1 nM; in test [2] (setting [7]), 0.49 nM; in test [2] (setting [6]), below 1 nM; in test [4] (Homo sapiens, Huh-7), below 1 nM; in test [5] (Homo sapiens, MKN-45) it was below 1 nM. The “improvement of anti-tumor proliferative activity over OPB51602 and IACS-010759” value in test [2] is 10 times. Besides, the Kd in test [3] was below 1 nM.

In the case of `Cn1c(C(=O)N2CCN(Cc3ccc(OCC(F)(F)F)cc3)CC2)cc2ccc(Oc3cnc(-c4nc(-c5cccc(C(F)(F)F)c5)no4)cn3)cc21` [Example 8, (6-((5-(3-(3-(trifluoromethyl)phenyl)-1,2,4-oxadiazol-5-yl)pyrazin-2-yl)oxy)-1-methyl-1H-indol-2-yl)(4-(4-(2,2,2-trifluoroethoxy)benzyl)piperazin-1-yl)methanone], the IC50 in test [1] (Homo sapiens) was below 1 nM; in test [2] (setting [7]) it was 0.34 nM; in test [2] (setting [6]) it was below 1 nM; in test [4] (Homo sapiens, Huh-7) it was below 1 nM; in test [5] (Homo sapiens, MKN-45), below 1 nM. Besides, the “improvement of anti-tumor proliferative activity over OPB51602 and IACS-010759” value in test [2] was found to be 10 times. Further, the equilibrium dissociation constant (Kd) in test [3] was below 1 nM.

Consider `COc1ccccc1-c1noc(-c2cnc(Oc3ccc4cc(C(=O)N5CCN(Cc6ccc(OCC(F)(F)F)cc6)CC5)n(C)c4c3)cn2)n1` [Example 9, (6-((5-(3-(2-methoxyphenyl)-1,2,4-oxadiazol-5-yl)pyrazin-2-yl)oxy)-1-methyl-1H-indol-2-yl) (4-(4-(2,2,2-trifluoroethoxy)benzyl)piperazin-1-yl)methanone], for which the IC50 is below 10 nM in test [1] (Homo sapiens); below 10 nM in test [2] (setting [6]); below 10 nM in test [4] (Homo sapiens, Huh-7); below 10 nM in test [5] (Homo sapiens, MKN-45). In test [3], the Kd is below 10 nM.

Take `COc1cccc(-c2noc(-c3cnc(Oc4ccc5cc(C(=O)N6CCN(Cc7ccc(OCC(F)(F)F)cc7)CC6)n(C)c5c4)cn3)n2)c1` [Example 10, (6-((5-(3-(3-methoxyphenyl)-1,2,4-oxadiazol-5-yl)pyrazin-2-yl)oxy)-1-methyl-1H-indol-2-yl) (4-(4-(2,2,2-trifluoroethoxy)benzyl)piperazin-1-yl)methanone]: the IC50 in test [1] (Homo sapiens) was below 10 nM; in test [2] (setting [6]), below 10 nM; in test [4] (Homo sapiens, Huh-7), below 10 nM; in test [5] (Homo sapiens, MKN-45), below 10 nM. The Kd in test [3] is below 10 nM.

`Cn1c(C(=O)N2CCN(Cc3ccc(OCC(F)(F)F)cc3)CC2)cc2ccc(Oc3cnc(-c4nc(-c5ccc(Cl)cc5)no4)cn3)cc21` [Example 11, (6-((5-(3-(4-chlorophenyl)-1,2,4-oxadiazol-5-yl)pyrazin-2-yl)oxy)-1-methyl-1H-indol-2-yl) (4-(4-(2,2,2-trifluoroethoxy)benzyl)piperazin-1-yl)methanone]: the IC50 is below 10 nM in test [1] (Homo sapiens); below 10 nM in test [2] (setting [6]); below 10 nM in test [4] (Homo sapiens, Huh-7); below 10 nM in test [5] (Homo sapiens, MKN-45). The dissociation constant Kd in test [3] is below 10 nM.

In the case of `Cn1c(C(=O)N2CCN(Cc3ccc(OCC(F)(F)F)cc3)CC2)cc2ccc(Oc3cnc(-c4nc(-c5ccc(Br)cc5)no4)cn3)cc21` [Example 12, (6-((5-(3-(4-bromophenyl)-1,2,4-oxadiazol-5-yl)pyrazin-2-yl)oxy)-1-methyl-1H-indol-2-yl) (4-(4-(2,2,2-trifluoroethoxy)benzyl)piperazin-1-yl)methanone], the IC50 is below 10 nM in test [1] (Homo sapiens); below 10 nM in test [2] (setting [6]); below 10 nM in test [4] (Homo sapiens, Huh-7); below 10 nM in test [5] (Homo sapiens, MKN-45). In test [3], the Kd is below 10 nM.

Consider `Cn1c(C(=O)N2CCN(Cc3ccc(OCC(F)(F)F)cc3)CC2)cc2ccc(Oc3cnc(-c4nc(-c5ccc(OC(F)(F)F)cc5)no4)cn3)cc21` [Example 13, (6-((5-(3-(4-(trifluoromethoxy)phenyl)-1,2,4-oxadiazol-5-yl)pyrazin-2-yl)oxy)-1-methyl-1H-indol-2-yl) (4-(4-(2,2,2-trifluoroethoxy)benzyl)piperazin-1-yl)methanone], for which the IC50 was below 10 nM in test [1] (Homo sapiens); below 10 nM in test [2] (setting [6]); below 10 nM in test [4] (Homo sapiens, Huh-7); below 10 nM in test [5] (Homo sapiens, MKN-45). Moreover, the Kd in test [3] was below 10 nM.

Consider `O=C(c1cc2ccc(Oc3cnc(-c4nc(-c5ccc(C(F)(F)F)cc5)no4)cn3)cc2[nH]1)N1CCN(Cc2ccc(OCC(F)(F)F)cc2)CC1` [Example 14, (6-((5-(3-(4-(trifluoromethyl)phenyl)-1,2,4-oxadiazol-5-yl)pyrazin-2-yl)oxy)-1H-indol-2-yl) (4-(4-(2,2,2-trifluoroethoxy)benzyl)piperazin-1-yl)methanone], for which the IC50 is below 100 nM in test [1] (Homo sapiens); below 100 nM in test [2] (setting [6]); below 100 nM in test [4] (Homo sapiens, Huh-7); below 100 nM in test [5] (Homo sapiens, MKN-45). Also, the Kd in test [3] was below 100 nM.
